# Data reported in patent US20230027066A1 (Urovant Sciences GmbH, priority 2019, published 2023).
# System: men and women with overactive bladder
# Test: Phase 3 study of vibegron 75 mg vs placebo and tolterodine ER 4 mg, 12 weeks, efficacy (voiding and urine volume diary)
# Format: in vivo, human
# Settings: for Patients with at Least 75% Reduction in Total Incontinence, Adjusted (%) / Patients with at Least 75% Reduction in Total Incontinence, Adjusted n / Patients with at Least 75% Reduction in Total Incontinence, Unadjusted (%) / Patients with at Least 75% Reduction in Total Incontinence, Unadjusted n / Total Incontinence 75% responders, Active - Placebo CMH Difference: FAS-I
# Description: Enrollment of patients included individuals with OAB Wet (those with UUI, the involuntary loss of urine accompanied by urgency) and OAB Dry (those without UUI). A total of 1,518 patients were randomized across 215 study sites into one of three groups for a 12-week treatment period.
# The study consisted of a Screening Period (1 to 5 weeks), a single-blind Run-in Period (2 weeks), a randomized double-blind Treatment Period (12 weeks), and a Follow-up Period (4 weeks).
# Tolterodine ER 4 mg was the active control. […] Between the Baseline and Week 12 Visits, patients had study assessments at Week 4 and Week 8.
# The Patient Voiding Diary was used by participants (via the eDiary or paper Diary) to record the frequency of daily OAB symptoms including all micturitions, urgency, incontinence, and main reason for incontinence by selecting the respective box for each symptom occurring during the course of a given day and night.
# Urine volume data were collected separately by patients using the Urine Volume component of the eDiary, or the paper Urine Volume Chart. The Urine Volume Chart is a tool used in clinical practice and clinical investigation to assess voiding functions over a 24-hour period and is regarded as a useful instrument in the investigation of patients with voiding symptoms. Urine volume may be collected during any one (1) of the 7 Diary Days prior to the visit, and it should be recorded for ˜24 hours starting from the time the patient gets up for the day and continues until the time the patient gets up for the day on the next day.
# For the purpose of this study, the number of micturitions was defined as the number of times a patient has voided in the toilet as indicated on the Patient Voiding Diary. Average daily micturitions were calculated using the daily entries in the Patient Voiding Diary, which was completed over the 7 days prior to each study visit. Average daily number of micturitions were calculated as the total number of micturitions that occurred on a Complete Diary Day divided by the number of Complete Diary Days in the Patient Voiding Diary. A complete diary day required confirmation by the patient in the Patient Voiding Diary that all voids and leakages had been recorded for the diary day. Baseline was defined as the average number of micturitions occurring during the last evaluable diary prior to the Baseline Visit.
# The number of UUI episodes was defined as the number of times a patient had checked “urge” as the reason for accidental urine leakage. Average daily UUI episodes at each study visit were calculated in the same manner as described above for the micturition endpoint. The UUI endpoint were analyzed using only OAB Wet patients.
# For the analysis of the co-primary endpoints (change from baseline in average number of daily micturitions at Week 12 and change from baseline in average number of daily urge urinary incontinence episodes at Week 12, and placebo adjustment of each), a mixed model for repeated measure (MMRM) with restricted maximum likelihood estimation was used. This model corrects for dropout and accounts for the fact that measurements taken on the same patient over time tend to be correlated by using all available information on patients within the same covariate set to derive an estimate of the treatment effect for a dropout-free population. The analysis model for each efficacy endpoint includes terms for treatment, visit, OAB Type (Wet vs Dry), Sex (Female vs Male), Region (US vs Rest of World), baseline score, and interaction of visit by treatment.
# Primary inferences were drawn from treatment differences for the changes from baseline derived from the MMRM models at Week 12. As part of secondary objectives, the treatment differences for each post baseline visit were also derived using the same MMRM model. […]
# [1] = subjects with prior ACH use, vibegron 75 mg, Week 12
# [2] = vibegron 75 mg or tolterodine ER 4 mg
# [3] = vibegron 75 mg or tolterodine ER 4 mg once daily
# [4] = vibegron 75 mg or tolterodine ER 4 mg once daily, OAB Wet
# [5] = vibegron 75 mg or tolterodine ER 4 mg, OAB Wet
compound,measurement,setting,value
"O=C(Nc1ccc(C[C@@H]2CC[C@H]([C@H](O)c3ccccc3)N2)cc1)[C@@H]1CCc2nccc(=O)n21 [Vibegron, (6S)-N-[4-[[(2S,5R)−5-[(R)-hydroxy(phenyl)methyl]pyrrolidin−2-yl]methyl]phenyl]−4-oxo−7,8-dihydro−6H-pyrrolo[1,2-a]pyrimidine−6-carboxamide]","UUI Episodes, change at Week 12, mean (SD)","Week 12, subpopulation Age ≥65 years",−1.94 (2.50)
same,"Daily Urgency, change at Week 12","Week 12, subpopulation Age ≥65 years, posthoc analysis",−2.7
same,Micturitions: Week 12 CFB Mean (descriptive statistics),"Week 12, ≥65 yrs",−2.10
same,"Patients with at Least 75% Reduction in Total Incontinence, Adjusted (%)",baseline to Week 2,22.1%
same,"Patients with at Least 75% Reduction in Total Incontinence, Adjusted n",baseline to Week 2,89
same,"Patients with at Least 75% Reduction in Total Incontinence, Unadjusted (%)",baseline to Week 2,23.6%
same,"Patients with at Least 75% Reduction in Total Incontinence, Unadjusted n",baseline to Week 2,95
same,"Total Incontinence 75% responders, Active - Placebo CMH Difference",baseline to Week 2,9.3
same,"Patients with at Least 75% Reduction in Total Incontinence, Adjusted (%)",baseline to Week 4,31.5%
same,"Patients with at Least 75% Reduction in Total Incontinence, Adjusted n",baseline to Week 4,127
same,"Patients with at Least 75% Reduction in Total Incontinence, Unadjusted (%)",baseline to Week 4,34.5%
same,"Patients with at Least 75% Reduction in Total Incontinence, Unadjusted n",baseline to Week 4,139
same,"Total Incontinence 75% responders, Active - Placebo CMH Difference",baseline to Week 4,11.8
same,"Patients with at Least 75% Reduction in Total Incontinence, Adjusted (%)",baseline to Week 8,42.0%
same,"Patients with at Least 75% Reduction in Total Incontinence, Adjusted n",baseline to Week 8,169
same,"Patients with at Least 75% Reduction in Total Incontinence, Unadjusted (%)",baseline to Week 8,43.7%
same,"Patients with at Least 75% Reduction in Total Incontinence, Unadjusted n",baseline to Week 8,176
same,"Total Incontinence 75% responders, Active - Placebo CMH Difference",baseline to Week 8,14.7
same,"Patients with at Least 75% Reduction in Total Incontinence, Adjusted (%)",baseline to Week 12,47.3%
same,"Patients with at Least 75% Reduction in Total Incontinence, Adjusted n",baseline to Week 12,191
same,"Patients with at Least 75% Reduction in Total Incontinence, Unadjusted (%)",baseline to Week 12,50.1%
same,"Patients with at Least 75% Reduction in Total Incontinence, Unadjusted n",baseline to Week 12,202
same,"Total Incontinence 75% responders, Active - Placebo CMH Difference",baseline to Week 12,15.8
same,"UUI, Week 12 LS mean change from baseline (placebo adjusted) (95% CI)","subgroup Age <65 years, vibegron 75 mg or tolterodine ER 4 mg",−0.5 (−0.9 to −0.1)
same,"UUI, Week 12 LS mean change from baseline (placebo adjusted) (95% CI)","subgroup Age ≥65 years, vibegron 75 mg or tolterodine ER 4 mg",−0.8 (−1.2 to −0.3)
same,"UUI, Week 12 LS mean change from baseline (placebo adjusted) (95% CI)","subgroup Age ≥75 years (posthoc analysis), vibegron 75 mg or tolterodine ER 4 mg",−1.6 (−2.4 to −0.8)
same,"UUI, Week 12 LS mean change from baseline (placebo adjusted) (95% CI)","subgroup Females, vibegron 75 mg or tolterodine ER 4 mg",−0.7 (−1.0 to −0.4)
same,"UUI, Week 12 LS mean change from baseline (placebo adjusted) (95% CI)","subgroup Males, vibegron 75 mg or tolterodine ER 4 mg",−0.1 (−0.9 to 0.8)
same,"UUI, Week 12 LS mean change from baseline (placebo adjusted) (95% CI)","subgroup Non-White, vibegron 75 mg or tolterodine ER 4 mg",0.0 (−0.6 to 0.7)
same,"UUI, Week 12 LS mean change from baseline (placebo adjusted) (95% CI)","subgroup Region: Non-US, vibegron 75 mg or tolterodine ER 4 mg",−1.1 (−1.8 to −0.3)
same,"UUI, Week 12 LS mean change from baseline (placebo adjusted) (95% CI)","subgroup Region: US, vibegron 75 mg or tolterodine ER 4 mg",−0.5 (−0.8 to −0.2)
same,"UUI, Week 12 LS mean change from baseline (placebo adjusted) (95% CI)","subgroup White, vibegron 75 mg or tolterodine ER 4 mg",−0.8 (−1.1 to −0.4)
same,"decrease in average number of UUI episodes in 24 hours, times the decrease with placebo",[1],about 1.75 times
same,"decrease in average number of micturitions in 24 hours, more than the decrease with placebo",[1],about 0.7
same,"decrease in average number of micturitions in 24 hours, more than the decrease with placebo","subjects with prior B3 use, vibegron 75 mg, Week 12",about 2.9
same,"total daily incontinence, placebo adjusted, week 2",vibegron 75 mg,−0.7
same,"average volume voided, placebo-adjusted mean change from baseline, week 12",[2],21.2 mL
same,"placebo-adjusted mean total daily incontinence episodes, week 12",[2],−0.7 episodes
same,"proportion of patients (UUI responders) with 75% or more reduction in daily UUI episodes, week 12",[2],49.3%
same,"Micturitions, active-placebo LS mean difference, Week 2",[3],−0.5
same,"Micturitions, active-placebo LS mean difference, Week 4",[3],−0.6
same,"Micturitions, active-placebo LS mean difference, Week 8",[3],−0.6
same,"Micturitions, active-placebo LS mean difference, Week 12",[3],−0.5
same,"Micturitions, average daily number, Week 2 mean",[3],10.18
same,"Micturitions, average daily number, Week 4 mean",[3],9.84
same,"Micturitions, average daily number, Week 8 mean",[3],9.53
same,"Micturitions, average daily number, Week 12 mean",[3],9.32
same,"Micturitions, change from baseline LS mean, Week 2",[3],−0.8
same,"Micturitions, change from baseline LS mean, Week 4",[3],−1.1
same,"Micturitions, change from baseline LS mean, Week 8",[3],−1.4
same,"Micturitions, change from baseline LS mean, Week 12",[3],−1.8
same,"UUI episodes, active-placebo LS mean difference, Week 2",[4],−0.6
same,"UUI episodes, active-placebo LS mean difference, Week 4",[4],−0.7
same,"UUI episodes, active-placebo LS mean difference, Week 8",[4],−0.6
same,"UUI episodes, average daily number, Week 2 mean",[4],2.03
same,"UUI episodes, average daily number, Week 4 mean",[4],1.77
same,"UUI episodes, average daily number, Week 8 mean",[4],1.65
same,"UUI episodes, average daily number, Week 12 mean",[4],1.46
same,"UUI episodes, change from baseline LS mean, Week 2",[4],−1.4
same,"UUI episodes, change from baseline LS mean, Week 4",[4],−1.7
same,"UUI episodes, change from baseline LS mean, Week 8",[4],−1.8
same,"UUI episodes, change from baseline LS mean, Week 12",[4],−2.0
same,"Estimated incidence of subjects with 75% decrease from baseline in UUI episodes, Week 2",[5],24.3
same,"Estimated incidence of subjects with 75% decrease from baseline in UUI episodes, Week 4",[5],26.6
same,"Estimated incidence of subjects with 75% decrease from baseline in UUI episodes, Week 8",[5],41.3
same,"Estimated incidence of subjects with 75% decrease from baseline in UUI episodes, Week 12",[5],52.7
same,"First 75% reduction in UUI episodes, Events/Censored, Week 2",[5],98/305
same,"First 75% reduction in UUI episodes, Events/Censored, Week 4",[5],107/296
same,"First 75% reduction in UUI episodes, Events/Censored, Week 8",[5],166/237
same,"First 75% reduction in UUI episodes, Events/Censored, Week 12",[5],210/193
same,"Overall time to first 75% decrease in UUI episodes, 25th percentile",[5],3.9 weeks
same,"Overall time to first 75% decrease in UUI episodes, 75th percentile",[5],13.1 weeks
same,"Overall time to first 75% decrease in UUI episodes, median (95% CI)",[5],8.4 (8.1 to 12.1) weeks
same,"Time to first 75% decrease in UUI episodes, Events/Censored (overall)",[5],239/164
same,"total daily incontinence, mean change from baseline (reduction)","vibegron 75 mg, after 12 weeks",2.3 episodes
same,"statistically significant onset of action, reduction in urge urinary incontinence (UUI)","vibegron 75 mg/day, FIG. 4",2 weeks
same,"statistically significant onset of action, reduction in micturitions","vibegron 75 mg/day, FIG. 5",2 weeks
same,"statistically significant onset of action, reduction in urgency episodes","vibegron 75 mg/day, FIG. 6",2 weeks
same,"statistically significant onset of action, urge incontinence responder rate","vibegron 75 mg/day, FIG. 7",2 weeks
same,"statistically significant onset of action, reductions in total incontinence episodes","vibegron 75 mg/day, FIG. 9",2 weeks
same,"statistically significant onset of action, improvement in volume voided","vibegron 75 mg/day, FIG. 10",2 weeks
